Data taken from the METLIN SMRT retention time set (Domingo-Almenara et al. 2019).

Assay: gradient 5% acetonitrile 3 min, to 50% in 2 min, to 85% in 15 min, held 3 min, 100 µL/min
Details: column: Zorbax Extend-C18 2.1 x 50 mm; eluents: water / acetonitrile, 0.1% formic acid
In short: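 Using water and acetonitrile that each contained 0.1% formic acid, mixtures of ~100 pure standards were separated at 100 μL/min on a Zorbax Extend-C18 column (2.1 × 50 mm, 1.8 μm). The HPLC fed a quadrupole time-of-flight mass spectrometer working in positive and negative ionization mode, with dead and dwell volumes of 40 μL and 900 μL. Data were acquired over 3 months. Retention time was read from computationally picked adduct peaks after manual inspection of each.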

Row | RP-LC retention time [s] | Compound
1 | 718 | CCCNC(=O)C1CCCN(c2ccc(SCC(=O)Nc3ccc(C)c(F)c3)nn2)C1 (stereo not drawn)
2 | 890 | O=C(CSc1nc(-c2cccc([N+](=O)[O-])c2)cs1)NCc1ccccc1
3 | 748 | CC(C)n1cnc(S(=O)(=O)N2CCC(C(=O)Nc3ccccc3)CC2)c1
4 | 809 | CCn1cnc(S(=O)(=O)N2CCCC(C(=O)Nc3ccc(C)cc3Cl)C2)c1 (stereo not drawn)
5 | 896 | CC(C)CNC(=O)COc1cccc2ccccc12
6 | 555 | CCN1CCN(C(=O)CCC2CCCN(c3cc(NC4CC4)ncn3)C2)CC1 (stereo not drawn)
7 | 706 | CCCOc1nccnc1NC1CCN(C(=O)c2ccnn2C)CC1
8 | 582 | CNC(=O)[C@@H]1CN(C(=O)c2cscn2)C[C@H]1c1nc(COC)no1
9 | 679 | COc1ccc(CNC(=O)Cn2nc3c(N4CCCCCC4)nccn3c2=O)cc1
10 | 1070 | Cc1ccc(-c2nnc(Cc3nc(-c4ccc5c(c4)OCO5)no3)o2)cc1C
11 | 954 | Cc1ccc(S(=O)(=O)N2C[C@@H](F)C[C@H]2C(=O)N2CCc3ccccc3C2)cc1F
12 | 984 | O=C(c1ccc(Br)o1)N1CCC(c2cnn(-c3ccc(F)cc3)c2)CC1
13 | 898 | CSc1ccc(-c2nc3ncccn3c2Nc2ccc(C)cc2C)cc1
14 | 921 | O=C(Nc1ccc(F)cc1)N1CCN(c2ccc(C(F)(F)F)cn2)CC1
15 | 855 | CCN(C(=O)C1CCN(C(=O)c2cccc(F)c2)CC1)C1CCCCC1
16 | 764 | O=C(c1ccc2c(c1)OCO2)N1CCC(n2nc(-c3ccsc3)ccc2=O)CC1
17 | 871 | Cc1ccc2c(c1)C(=O)NC1(CCN(C(=O)c3ccc(C(F)(F)F)cc3)CC1)N2C
18 | 584 | COc1ccc(-c2nc3cnccn3c2Nc2ccc(C(=O)NCCN3CCOCC3)cc2)cc1
19 | 885 | O=C(C1=NN(Cc2ccc(F)cc2)c2ccccc2S1(=O)=O)N1CCCCC1
20 | 683 | Cc1csc(NC(=O)Cn2nc3c(cc2=O)CCCC3)n1
21 | 902 | COc1cccc(NC(=O)CN2C(=O)C3CCCCN3c3ccc(S(=O)(=O)N(C)C)cc32)c1 (stereo not drawn)
22 | 990 | CCc1noc(-c2ccnc(-n3cnc(C(=O)Nc4ccc(F)cc4C)c3)c2)n1

Row | RP-LC retention time [s] | Compound
23 | 1090 | CCCn1cc(C(=O)Nc2ccc(C)cc2)c(S(=O)(=O)N2CCSCC2)n1
24 | 743 | CCCN(C)c1nccn2c(=O)n(CC(=O)Nc3ccc(C)cc3Br)nc12
25 | 885 | COc1ccc(Cl)cc1NC(=O)CSc1nnc(-c2ccco2)n1-n1cccc1
26 | 1300 | CCOc1ccc(-c2csc(Cc3nc(-c4ccc(OCC)cc4)no3)n2)cc1
27 | 844 | Cn1cc(S(=O)(=O)N2CCC(C(=O)NC3CCCCCCC3)CC2)cc1C(=O)N1CCCC1
28 | 866 | COc1cc(NC(=O)Cn2c(=O)n(-c3ccc(C)cc3)c(=O)c3c2cc(C)n3C)cc(OC)c1
29 | 874 | COCCN1C(=O)c2ccccc2C(C(=O)NCCC(C)C)C1c1cccs1 (stereo not drawn)
30 | 719 | CCOc1ccccc1C(=O)Nc1c(-c2ccc(F)cc2)nc2ccccn12
31 | 1090 | Cc1cccc(-c2noc(Cn3c(=O)n(Cc4ccco4)c(=O)c4ccccc43)n2)c1
32 | 783 | CN(CC1CCOC1)C(=O)Nc1ccc(C(F)(F)F)cc1 (stereo not drawn)
33 | 975 | Cc1ccccc1CNC(=O)CN1C(=O)CCCc2cc(S(=O)(=O)N3CCC(C)CC3)ccc21
34 | 681 | Cc1nc(-c2cccnc2)nc2c1CCC(=O)N2Cc1ccco1
35 | 856 | Cc1ccc(C)c(CNC(=O)c2ccc(NC(=O)C3CC3)cc2N2CCOCC2)c1
36 | 790 | Cn1cccc1C(=O)N1CCC2(CC1)NC(=O)N(Cc1ccccc1Cl)C2=O
37 | 876 | O=C(CCC1CCCC1)NCCC1CCN(C(=O)Nc2ccccc2)CC1
38 | 590 | O=C([C@@H]1C[C@H](F)CN1C(=O)c1ccccc1)N1CCOCC1
39 | 667 | CN(C)C(=O)c1ccc2c(c1)N(CC(=O)N1CCN(C(=O)c3ccco3)CC1)C(=O)C1CCCCN21 (stereo not drawn)
40 | 991 | COc1ccc(N2CCN(c3ccc4cc(S(=O)(=O)N5CCCCC5C)ccc4n3)CC2)cc1 (stereo not drawn)
41 | 597 | Cc1cc2nc(C(=O)N3CCN(c4ccccn4)CC3)c(=O)n(C)c2cc1C
42 | 639 | Cc1ccc(S(=O)(=O)NCCC(=O)O)cc1C
43 | 636 | Cc1nc(-c2csc(S(=O)(=O)N3CCC(C(=O)NCc4ccccn4)CC3)c2)no1
44 | 752 | COc1cccc(C(=O)N2CCC3(CC2)NC(=O)c2cc(C)ccc2N3C)c1

Row | RP-LC retention time [s] | Compound
45 | 895 | O=C(Cc1cc(-c2ccc3c(c2)OCCO3)on1)N1CCN(c2ccccc2F)CC1
46 | 849 | COc1cccc(-n2c(N3CCCC(C(=O)NCc4ccc(C)o4)C3)nc3ccsc3c2=O)c1 (stereo not drawn)
47 | 1110 | O=C1COc2ccccc2N1Cc1nc(-c2ccc(Br)cc2)no1
48 | 1070 | CCc1ccc(-c2ccc(-n3nc(C)c(S(=O)(=O)N4CCOCC4)c3C)nn2)cc1
49 | 878 | Cc1ccc(NC(=O)C2CCN(C(=O)C3Sc4ccccc4NC3=O)CC2)cc1Cl (stereo not drawn)
50 | 540 | c1ccc(CNc2nc(C3CC3)nc3c2CCC3)nc1
51 | 617 | CC(C)c1nncn1C1CCN(C(=O)c2cc(-c3cccs3)[nH]n2)C1 (stereo not drawn)
52 | 994 | CC(C)Cn1cc(S(=O)(=O)Nc2ccc(F)c(F)c2)c2cccnc21
53 | 848 | COc1ccc(-c2ncc(NC(=O)C3CCC3)cn2)cc1
54 | 1230 | CCCCOc1ccc(C(=O)N2CCCC2c2nc(-c3ccccc3)no2)cc1 (stereo not drawn)
55 | 655 | COCCc1nnc(NC(=O)COc2ccc(Cl)cc2)o1
56 | 674 | Cc1nnc(C(C)C)n1C1CC2CCC(C1)N2CC[C@H](NC(=O)C1CCC(F)(F)CC1)c1ccccc1 (stereo partly drawn)
57 | 694 | O=C(CCCc1ccccc1)N1CCCC1c1nc(-c2ccccc2)no1 (stereo not drawn)
58 | 881 | Cc1ccc(CNC(=O)c2cc3c(s2)CCN(C(=O)c2ccccc2)C3)o1
59 | 655 | Fc1ccc(-c2ccc(CNCc3ccccn3)o2)cc1
60 | 951 | CSc1ccc(CNC(=O)C2CCCN(C(=O)Cc3cccc4ccccc34)C2)cc1 (stereo not drawn)
61 | 1010 | O=C(NC1CCCCCC1)c1nnc(-c2ccc(S(=O)(=O)N3CCCC3)cc2)o1
62 | 735 | CCCn1cnc2ccc(-c3noc(C4CC(=O)N(c5ccc(C)cc5)C4)n3)cc21 (stereo not drawn)
63 | 659 | CCCn1cnc2cc(-c3noc(CNC(=O)Cc4ccccc4)n3)ccc21
64 | 752 | Cc1ccn2c(NC(=O)c3cccc(C(F)(F)F)c3)c(-c3ccc(F)cc3)nc2c1
65 | 837 | CCN1c2cc(Cl)ccc2C(=O)NC12CCN(C(=O)Nc1ccccc1C)CC2
66 | 644 | Cc1cc(NCCOCCO)n2nc(-c3ccc(Cl)cc3)c(C)c2n1

Row | RP-LC retention time [s] | Compound
67 | 946 | CCCN(CC1CCOC1)S(=O)(=O)c1ccccc1C(F)(F)F (stereo not drawn)
68 | 586 | Cc1cc(N2CCN(C)CC2)nc(N2CCN(C(=O)c3ccc(C(C)(C)C)cc3)CC2)n1
69 | 640 | COc1ccc(S(=O)(=O)N2C[C@@H](F)C[C@H]2C(=O)N2CCOCC2)cc1OC
70 | 801 | Cc1ccc2[nH]cc(CCN3CC(C(=O)Nc4nnc(C(C)(C)C)s4)CC3=O)c2c1 (stereo not drawn)
71 | 814 | CC1(C(=O)NCc2ccc(Cl)cc2)CN(S(C)(=O)=O)CC(=O)N1Cc1ccc(F)cc1 (stereo not drawn)
72 | 713 | C=CCNC(=O)N1CCCN(C2=NS(=O)(=O)C(c3ccccc3)=C2C)CC1
73 | 1200 | CCOc1nc2ccccc2nc1N1CCCC(C(=O)Nc2ccccc2F)C1 (stereo not drawn)
74 | 628 | CN1Cc2sccc2C(c2ccc(O)c(O)c2)C1 (stereo not drawn)
75 | 663 | O=C(NCC1CCCO1)N1CCCn2nc(-c3cccs3)cc2C1 (stereo not drawn)
76 | 1020 | Cn1nc(-c2nnc(-c3ccc(F)cc3)o2)c2c1CCN(S(=O)(=O)c1ccc(Cl)cc1)C2
77 | 696 | CCCNc1cc(N2CCCC(CCC(=O)NCc3cccc(F)c3)C2)ncn1 (stereo not drawn)
78 | 831 | CCN1C=C(C(=O)OCc2c(C)noc2C)C(C)=NS1(=O)=O
79 | 940 | O=C(NCc1ccccc1)C1CCCCN1S(=O)(=O)c1ccc(F)cc1 (stereo not drawn)
80 | 570 | O=C(CCCn1nnc2ccccc2c1=O)Nc1nc2ccccc2[nH]1
81 | 684 | CCc1ccc2c(c1)-c1ccccc1S(=O)(=O)N2CC(=O)NCc1cccnc1
82 | 982 | COc1ccc(OC)c(NC(=O)CN2C(=O)CC(c3ccccc3)=Nc3ccccc32)c1
83 | 1060 | O=C1CCCc2c1cc(C(=O)Nc1ccc(Cl)cc1)c(=O)n2-c1ccc(F)cc1
84 | 809 | CCOC(=O)c1ccc(NC(=O)N2CCCC2c2cc(C)on2)cc1 (stereo not drawn)
85 | 748 | COc1ccc(CNC(=O)C2(C)Oc3cccnc3N(C)C2=O)cc1 (stereo not drawn)
86 | 655 | CC(=O)c1cccc(NC(=O)Nc2cccc(-c3ccc(N4CCOCC4)nn3)c2)c1
87 | 581 | COC(=O)c1ccc(NC(=O)C(=O)NCCN2CCN(c3ccccc3OC)CC2)cc1

Row | Compound | RP-LC retention time [s]
88 | COC(=O)c1cc2c(cn1)[nH]c1ccccc12 | 704
